Measured values published in article PMC10384011, “m-Terphenylamines, Acting as Selective COX-1 Inhibitors, Block Microglia Inflammatory Response and Exert Neuroprotective Activity” (Molecules, 2023).

Assays:
BV2 microglia cells [1] = assay: ROS production (H2DCFDA) in LPS-treated BV2 microglia; assay type: cell-based; conditions: LPS 1 μg/mL, 24 h
Excerpt: Activation of toll-like receptors (TLRs), particularly the TLR4 subtype, is closely associated with the production of reactive oxygen and nitrogen species that contribute to neuronal death in the CNS. In this connection, NADPH oxidase enzymes are the main ones responsible for ROS production induced by NF-κB nuclear translocation. For this reason, we decided to assess the ROS levels of BV2 microglia cells treated with LPS and the effect of our compounds under this toxicity protocol. To this end, the compounds, at different concentrations (3 μM of 3a, 3b, and 3d and 10 μM of 3c) were incubated with 1 μg/mL LPS for 24 h. After this period, ROS production was measured with the fluorescent probe H2DCFDA. Treatment with LPS increased by 1.75-fold the amount of ROS compared with control cells.
(§1) Cultures were seeded into flasks containing supplemented medium and kept at 37 °C in a humidified atmosphere of 5% CO2 and 95% air. For assays, BV-2 cells were subcultured in 48-well plates at a seeding density of 1 × 10^5 cells per well. Cells were treated with LPS (Sigma-Aldrich, Madrid, Spain) for 24 or 48 h before confluence in RPMI with 1% FBS.
To measure cellular ROS, we used the molecular probe 2′,7′-dichlorodihydrofluorescein diacetate (H2DCFDA). Glial cells were loaded with 5 µM H2DCFDA as it was previously described (Parada et al., 2015). Fluorescence was measured in a fluorescence microplate reader (FLUOstar Galaxy; BMG Labtech, Offenburg, Germany). Wavelengths of excitation and emission were 485 and 520 nm, respectively. The relative pixel intensity was measured in identical regions with (ImageJ 1.52a software, National Institutes of Health, Bethesda, MD, USA).

human COX-2 = target: T1, human COX-2 (Homo sapiens, UniProt P35354); assay: Cyclooxygenase colorimetric inhibitor screening assay, COX-2; assay type: biochemical; conditions: read-out: hCOX-2; for inhibition at 50 µM: human COX-2, 50 µM; for IC50: human COX-2, colorimetric kit;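 on all read-outs here: peroxidase activity of COX-2 followed colorimetrically through formation of oxidized TMPD at 590 nm, with arachidonic acid as substrate, compounds tested from 0.001 to 50 µM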
T1 construct: purchased Cayman Chemicals 701050
T1 sequence (P35354 18-604): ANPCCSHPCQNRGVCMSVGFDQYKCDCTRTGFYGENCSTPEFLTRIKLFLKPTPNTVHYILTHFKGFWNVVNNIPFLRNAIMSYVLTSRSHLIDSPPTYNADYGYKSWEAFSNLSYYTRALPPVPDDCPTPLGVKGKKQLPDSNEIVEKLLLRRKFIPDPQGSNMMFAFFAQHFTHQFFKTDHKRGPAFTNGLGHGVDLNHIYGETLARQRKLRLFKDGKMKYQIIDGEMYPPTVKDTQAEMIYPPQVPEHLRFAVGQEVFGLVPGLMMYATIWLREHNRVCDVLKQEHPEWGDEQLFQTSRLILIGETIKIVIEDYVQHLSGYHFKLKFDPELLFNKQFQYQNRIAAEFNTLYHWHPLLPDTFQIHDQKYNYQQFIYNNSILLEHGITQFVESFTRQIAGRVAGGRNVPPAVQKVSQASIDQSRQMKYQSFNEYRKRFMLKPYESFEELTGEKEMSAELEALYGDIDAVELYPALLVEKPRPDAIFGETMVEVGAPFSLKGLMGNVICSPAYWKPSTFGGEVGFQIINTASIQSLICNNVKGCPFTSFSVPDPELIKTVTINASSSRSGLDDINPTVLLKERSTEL
Method: (§2) Newly synthesized compounds were evaluated for their ability to inhibit ovine COX-1 or human COX-2 enzyme by measuring the extent (%) of enzyme activity inhibition at different concentrations (0.001, 0.01, 0.1, 1, 10, 50 μM). […] The assay kit measures the peroxidase component of COXs that is assayed colorimetrically by monitoring the appearance of oxidized N,N,N′,N′-tetramethyl-p-phenylenediamine (TMPD) a λ = 590 nm. […] Stock solutions of test compounds were dissolved in DMSO.

BV2 microglia cells [2] = assay: Nitrite release (Griess reaction) in LPS-treated BV2 microglia; assay type: cell-based; conditions: LPS 1 μg/mL, basal = 100
Excerpt: The COX-1 inhibition data prompted us to undertake further work on the activity of compounds 3 in a neuroinflammation situation. Once we had verified that the compounds studied were not toxic per se in microglia BV2 cells (see the data in Table S1), we measured the nitrites released to determine the efficacy of our compounds in reducing microglia activation. Nitric oxide is a potent mediator of the classic activated microglia phenotype (M1); in fact, the lack of nitrite release correlated with an anti-inflammatory microglia (M2) phenotype. Therefore, we evaluated the response of the BV2 microglia cells to a challenge of 1 μg/mL LPS. For this purpose, BV2 microglia cells were incubated with LPS, a well-known agonist of the toll-like receptor 4 (TLR4) that causes a neuroinflammatory response, in combination with increasing concentrations of our COX-1 inhibitors (1, 3, and 10 μM). […] Similar results were observed after 48 h of the LPS treatment.
as §1
The NO assay was performed using the previously reported protocols. Briefly, 100 μL of culture supernatants were mixed with the same volume of Griess assay regent (1% sulfanilamide (Sigma Aldrich, Madrid, Spain), 0.1% naphthylethylenediamine dihydrochloride, and 2.5% phosphoric acid). Ten minutes later, the 560-nm absorbance was measured.

BV2 microglia cells [3] = assay: LPS-induced activated (ramified) phenotype of BV2 microglia; assay type: cell-based; conditions: LPS 1 μg/mL, 24 h
Excerpt: Next, we set out to study the changes in microglia phenotype under this toxicity protocol. As mentioned above, microglia are comprised of variable morphology cells that are always adapting to the surrounding media and, therefore, to physiopathological conditions. Indeed, morphological appearance is well correlated with the different states of microglia activation. The microglia-activated phenotype (M1), which is the classical state of this kind of cell in response to proinflammatory insults such as LPS, is linked with the overexpression of a plethora of cytokines and inflammatory markers, namely TNF, IL-1β, IL-6, MCP-1 or CD11b. All of these markers are commonly associated with morphological changes towards an amoeboid phenotype in primary cultures or in in vivo studies. Nevertheless, it has been recently described that BV2 microglia, as well as macrophages, turn from rounded to spindle-shaped or multipolar phenotypes in response to various M1 proinflammatory stimuli such as LPS/IFNγ or spinal cord injury conditioned media. In this context, we assessed the ability of our compounds to prevent the morphological changes induced by LPS by analyzing the percentage of BV2 ramified cells (multipolar or spindle) over the total BV2 per field following cell incubation with our compounds and 1 μg/mL LPS for 24 h.
as §1

ovine COX-1 = target: T2, ovine COX-1 (Ovis aries, UniProt P05979); assay: Cyclooxygenase colorimetric inhibitor screening assay, COX-1; assay type: biochemical; conditions: for inhibition at 50 µM: ovine COX-1, 50 µM, % Inhibition at 50 µM (converted); for inhibition at 50 µM / IC50: read-out: oCOX-1; for IC50: ovine COX-1, colorimetric kit, triplicate;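 on all read-outs here: COX peroxidase activity read colorimetrically as oxidized TMPD at 590 nm, arachidonic acid as substrate, inhibitors tested at 0.001–50 µM from DMSO stocks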
T2 construct: purchased Cayman Chemicals 701050
T2 sequence (P05979 25-600): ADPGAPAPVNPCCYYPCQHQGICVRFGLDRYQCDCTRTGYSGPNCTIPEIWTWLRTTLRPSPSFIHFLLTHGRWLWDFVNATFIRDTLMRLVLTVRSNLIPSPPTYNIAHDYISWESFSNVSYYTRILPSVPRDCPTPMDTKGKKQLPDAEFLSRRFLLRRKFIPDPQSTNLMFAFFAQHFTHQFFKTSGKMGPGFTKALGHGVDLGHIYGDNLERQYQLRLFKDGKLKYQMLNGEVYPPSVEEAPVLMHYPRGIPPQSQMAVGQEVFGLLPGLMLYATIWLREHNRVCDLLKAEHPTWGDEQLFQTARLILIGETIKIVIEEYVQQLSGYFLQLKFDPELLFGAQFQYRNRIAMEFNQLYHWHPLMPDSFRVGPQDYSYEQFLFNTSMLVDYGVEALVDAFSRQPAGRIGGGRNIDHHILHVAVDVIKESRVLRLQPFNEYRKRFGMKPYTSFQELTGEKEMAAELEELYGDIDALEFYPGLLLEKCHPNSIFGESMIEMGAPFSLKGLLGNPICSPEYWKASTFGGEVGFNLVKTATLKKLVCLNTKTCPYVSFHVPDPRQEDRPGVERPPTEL
Method: as §2

BV2 microglia cells [4] = assay: Nitrite release (Griess reaction) in LPS-treated BV2 microglia; assay type: cell-based; conditions: 100 nM, LPS 1 μg/mL, basal = 100
[5] = system: organotypic hippocampal cultures (OHCs); assay: Cell death (propidium iodide uptake, CA1) in organotypic hippocampal cultures treated with LPS; assay type: cell-based, Sprague-Dawley rats; conditions: LPS 1 μg/mL, 24 h
Method: With these promising data in hand, we selected compound 3b for its study in a more complex preparation. In vivo administration of LPS produces a proinflammatory cascade that causes memory deficits, an increase of inflammatory markers, and impairment of hippocampal glutamatergic transmission, contributing to neuronal death. All of these functional changes have been described to take place mainly in the hippocampus region. Thus, we subjected organotypic hippocampal cultures (OHCs) to LPS (1 μg/mL) to assess the protective effect of COX-1 inhibition. This kind of explant allows us to study the microglia-neuron network in a more complex and physiological model of cerebral insult.
OHCs were conducted on 8–10-day-old Sprague-Dawley rats supplied by the animal facilities of Universidad Autónoma de Madrid (Madrid, Spain). Cultures were prepared according to the methods described by Stoppini et al. with some modifications. […]
Cell death was determined in the CA1 region by staining the OHCs with propidium iodide (PI). Thirty minutes before analyzing fluorescence, slices were incubated with PI (1 µg/mL). Fluorescence was measured in an epifluorescence Olympus BX50WI microscope. […] Fluorescence was measured in each slice using ImageJ.

| inhibition at 50 µM (ovine COX-1) [%] | IC50 (ovine COX-1) [µM] | COX-1 selectivity (in words) (ovine COX-1; ovine COX-1 vs human COX-2) | SMILES | ROS production induced by LPS (BV2 microglia cells [1]; 3 μM) | inhibition at 50 µM (human COX-2) [%] | IC50 (human COX-2) [µM] | Nitrite Release after 24 h (BV2 microglia cells [2]; 1 μM) [%] | Nitrite Release after 48 h (BV2 microglia cells [2]; 1 μM) [%] | Nitrite Release after 24 h (BV2 microglia cells [2]; 3 μM) [%] | Nitrite Release after 48 h (BV2 microglia cells [2]; 3 μM) [%] | Nitrite Release after 24 h (BV2 microglia cells [2]; 10 μM) [%] | Nitrite Release after 48 h (BV2 microglia cells [2]; 10 μM) [%] | Reduction of the number of BV2 ramified cells (BV2 microglia cells [3]; 3 μM) [%] | COX-1/COX-2 inhibition ratio (ovine COX-1; ovine COX-1 vs human COX-2) | Reduction of the number of BV2 ramified cells (BV2 microglia cells [3]; 10 μM) [%] | Nitrite Release after 24 h (BV2 microglia cells [4]; 24 h) [%] | Nitrite Release after 48 h (BV2 microglia cells [4]; 48 h) [%] | ROS production induced by LPS (BV2 microglia cells [1]; 100 nM) | Cell death (PI uptake in CA1) induced by LPS [5] |
| --- | --- | --- | --- | --- | --- | --- | --- | --- | --- | --- | --- | --- | --- | --- | --- | --- | --- | --- | --- |
| 100 | 4.7 ± 3.04 | complete selectivity towards COX-1 | Nc1cc(-c2ccccc2)cc(-c2ccc(Cl)cc2)c1 [Compound 3c, 4-Chloro-5′-amino-m-terphenyl] | significantly reverted ROS production almost to basal levels | – | > 50 | 135 ± 6 | 181 ± 9 | 117 ± 8 | 163 ± 5 | 110 ± 6 | 138 ± 7 | – | – | 60 | – | – | – | – |
| 73 | 0.9 ± 0.76 | – | COc1ccc(-c2cc(N)cc(-c3ccccc3)c2)cc1 [Compound 3e, 4-Methoxy-5′-amino-m-terphenyl] | – | 8 | – | 124 ± 9 | 144 ± 15 | 110 ± 6 | 133 ± 13 | 103 ± 9 | 131 ± 13 | 60 | – | – | – | – | – | – |
| – | – | – | COc1ccc(-n2nc(C(F)(F)F)cc2-c2ccc(Cl)cc2)cc1 [SC-560, reference compound] | – | – | – | – | – | – | – | – | – | – | – | – | 114 ± 9 | 135 ± 8 | significantly reverted ROS production almost to basal levels | prevented |

| SMILES | inhibition at 50 µM (ovine COX-1) [%] | IC50 (ovine COX-1) [µM] | COX-1 selectivity (in words) (ovine COX-1; ovine COX-1 vs human COX-2) | ROS production induced by LPS (BV2 microglia cells [1]; 3 μM) | inhibition at 50 µM (human COX-2) [%] | IC50 (human COX-2) [µM] | Nitrite Release after 24 h (BV2 microglia cells [2]; 1 μM) [%] | Nitrite Release after 48 h (BV2 microglia cells [2]; 1 μM) [%] | Nitrite Release after 24 h (BV2 microglia cells [2]; 3 μM) [%] | Nitrite Release after 48 h (BV2 microglia cells [2]; 3 μM) [%] | Nitrite Release after 24 h (BV2 microglia cells [2]; 10 μM) [%] | Nitrite Release after 48 h (BV2 microglia cells [2]; 10 μM) [%] | Reduction of the number of BV2 ramified cells (BV2 microglia cells [3]; 3 μM) [%] | COX-1/COX-2 inhibition ratio (ovine COX-1; ovine COX-1 vs human COX-2) | Reduction of the number of BV2 ramified cells (BV2 microglia cells [3]; 10 μM) [%] | Nitrite Release after 24 h (BV2 microglia cells [4]; 24 h) [%] | Nitrite Release after 48 h (BV2 microglia cells [4]; 48 h) [%] | ROS production induced by LPS (BV2 microglia cells [1]; 100 nM) | Cell death (PI uptake in CA1) induced by LPS [5] |
| --- | --- | --- | --- | --- | --- | --- | --- | --- | --- | --- | --- | --- | --- | --- | --- | --- | --- | --- | --- |
| Nc1cc(-c2ccccc2)cc(-c2ccccc2)c1 [Compound 3a, 5′-Amino-m-terphenyl] | 86 | 0.8 ± 0.39 | – | significantly reverted ROS production almost to basal levels | 70 | 5.4 | 130 ± 14 | 145 ± 17 | 110 ± 7 | 119 ± 10 | 122 ± 10 | 120 ± 15 | 60 | around 7 | – | – | – | – | – |
